According to paper PMC12089509, “NorA Efflux Pump Inhibitors: Expanding SAR Knowledge of Pyrazolo[4,3‐c][1,2]benzothiazine 5,5‐Dioxide Derivatives” (Archiv Der Pharmazie, 2025):
Values after ≈ are worked out from the molar mass of the structure shown.

Legend:
[1] = tested on: S. aureus SA-1199 (wild type); experiment: Synergistic assay with CPX against wild-type SA-1199; assay type: cell-based, Staphylococcus aureus; details: EPI at 3.13 µg/mL with CPX
Description: This finding aligns with their mechanism of action, which involves the inhibition of NorA, which is only basally expressed in the wild‐type SA‐1199 strain.

[2] = MTT cytotoxicity assay on A549; assay type: cell-based; details: human, A549 cells; for viability at 72 h, 12.5 µg/mL: A549, 12.5 μg/mL; for viability at 72 h, 12.5 µg/mL / viability at 72 h, 25 µg/mL / viability at 72 h, 50 µg/mL / viability at 72 h, 100 µg/mL: read-out: Cytotoxicity (% cell viability); for viability at 72 h, 25 µg/mL: A549, 25 μg/mL; for viability at 72 h, 50 µg/mL: A549, 50 μg/mL; for viability at 72 h, 100 µg/mL: A549, 100 μg/mL
Protocol: The MTT assay was performed on two human ATCC cell lines, that is, […] (CCL‐185) and MCF7 (HTB‐22), to test the potential cytotoxic effect of the compounds, after 72 h exposure, as previously described. Each compound was tested at concentrations ranging from 12.5 to 100 μg/mL. Untreated cells were considered as controls. The percentage of viable cells was calculated as follows: % Cell viability = 100 × treated well absorbance/untreated control well absorbance. All assays were performed once in technical quadruplicate.

[3] = tested on: S. aureus SA-K1902 (norA-); experiment: MIC evaluation against SA-K1902; assay type: cell-based, Staphylococcus aureus; details: Staphylococcus aureus
Description: (§1) Conversely, interesting results were obtained against SA‐K2378, which overexpresses the norA gene (Table 2). […] This corroborates the hypothesis that their activity is strictly related to NorA EP inhibition.
In this study, the S. aureus strains SA‐1199B (overexpressing norA) and its isogenic parent SA‐1199 (wild type), the pair SA‐K1902 (norA‐depleted) and SA‐K2378 (complemented with a pCU1 plasmid harboring the norA promoting and coding region from SA‐1199B), were used to test EPI activity as described in a previous study. Furthermore, the S. aureus ATCC 29213 was used as the reference strain in MIC determination experiments.

[4] = tested on: S. aureus SA-K2378 (norA ++); experiment: Checkerboard assay EPI/CPX against SA-K2378; assay type: cell-based, Staphylococcus aureus
Protocol: as §1
Checkerboard assays were carried out using SA‐K1902 and SA‐K2378 strains according to standard procedures.

## O=S1(=O)Nc2c(-c3ccc(Cl)cc3)nn(-c3ccccc3)c2-c2ccccc21 [Compound 3]
[1]
  synergistic effect with CPX: did not show any synergistic effect
[2]
  viability at 72 h, 12.5 µg/mL: 94 ± 24%
  viability at 72 h, 25 µg/mL: 99 ± 20%
  viability at 72 h, 50 µg/mL: 101 ± 24%
  viability at 72 h, 100 µg/mL: 34 ± 10%
[3]
  MIC: > 50 µg/mL
[4]; EPI at 0.2 µg/mL
  CPX MIC: 0.6 µg/mL
  N° CPX MIC reduction: 2
[4]; EPI at 0.4 µg/mL
  CPX MIC: 0.6 µg/mL
  N° CPX MIC reduction: 2
[4]; EPI at 0.8 µg/mL
  CPX MIC: 0.3 µg/mL
  N° CPX MIC reduction: 4
[4]; EPI at 1.6 µg/mL
  CPX MIC: 0.16 µg/mL
  N° CPX MIC reduction: 8
[4]; EPI at 3.13 µg/mL
  CPX MIC: 0.16 µg/mL
  N° CPX MIC reduction: 8
[4]; EPI at 6.25 µg/mL
  CPX MIC: 0.08 µg/mL
  N° CPX MIC reduction: 16

## CN1c2c(-c3ccc(Cl)cc3)n[nH]c2-c2ccccc2S1(=O)=O [Compound 10, 3‐(4‐Chlorophenyl)‐4‐methyl‐1,4‐dihydropyrazolo[4,3‐c][1,2]benzothiazine 5,5‐dioxide]
[1]
  synergistic effect with CPX: did not show any synergistic effect
[2]
  viability at 72 h, 12.5 µg/mL: 97 ± 2%
  viability at 72 h, 25 µg/mL: 45 ± 3%
  viability at 72 h, 50 µg/mL: 7%
  viability at 72 h, 100 µg/mL: 7 ± 2%
[2]; A549, MTT
  CC50 at 72 h: ~25 µg/mL (≈ 72.3 µM)
[3]
  MIC: 12.5 µg/mL (≈ 36.1 µM)
[4]; EPI at 0.2 µg/mL
  CPX MIC: 0.6 µg/mL
  N° CPX MIC reduction: 2
[4]; EPI at 0.4 µg/mL
  CPX MIC: 0.6 µg/mL
  N° CPX MIC reduction: 2
[4]; EPI at 0.8 µg/mL
  CPX MIC: 0.3 µg/mL
  N° CPX MIC reduction: 4
[4]; EPI at 1.6 µg/mL
  CPX MIC: 0.16 µg/mL
  N° CPX MIC reduction: 8
[4]; EPI at 3.13 µg/mL
  CPX MIC: 0.08 µg/mL
  N° CPX MIC reduction: 16
